This is an account of results in US8280710B2, “Method for determining thermal stability of collagen or collagen-like peptide” (University of Medicine and Dentistry of New Jersey, priority 2005, dated 2012).

Series [1] can be described thus: Method for predicting global Tm of collagen peptides from amino acid sequence. The following applies: observed minus predicted, peptides of Table 3. As to the method: The global thermal stability of homotrimeric triple helical peptides with length of at least 6 tripeptide units and, in most cases, containing 10 tripeptide units was determined as follows.
For the total number of triplets n in a given peptide, the base Tm^0(n) for (Pro-Hyp-Gly) or (Pro-Pro-Gly)n was calculated from the length dependence (Equation 1), including any effect of blocking groups;
The melting temperature value was decreased for every triplet in the sequence that was not Gly-Pro-Hyp, subtracting a value of ΔTm^GXY (Table 1). The N-terminal and C-terminal tripeptide units were excluded from the calculation due to the staggering of the chains and the disorder for the peptide ends (Bella et al. (1994) supra; Li, et al. (1993) Biochemistry 32:7377-7387; Kramer, et al. (2001) J. Mol. Biol. 301:1191-1205).
The resulting value for the peptide melting temperature was adjusted using the ΔTm^int values for interactions between neighboring tripeptides (Table 2).
The method was formulated as follows.
To extrapolate the dependence of the Tm of the host peptides on peptide length, the experimental values for (Pro-Hyp-Gly)n and (Pro-Pro-Gly)n versus n, where n is the number of tripeptide units, were fit to the exponential decay function
[formula] where Tm^0(n) is defined as the base thermal stability of the repeating polytripeptide standard, Tm^max is the maximum melting temperature, and the constant n0 represents the length of the repeating peptide with Tm=0.

The conditions of series [2]: peptide of Table 3, defined standard conditions. As to the method: The propensity measurements for all 20 amino acid residues in the Xaa1 position in a Gly-Xaa1-Hyp context and all 20 amino acid residues in the Xaa2 position in a Gly-Pro-Xaa2 context were determined by measuring thermal stability of host-guest peptides (Persikov, et al. (2000) supra).
The Tm values of all host-guest peptides were measured under a set of standard conditions, with c=1 mg/ml in phosphate-buffered saline, pH 7.0, and with a heating rate average of 0.1° C./minute (Persikov, et al. (2004) supra).

Non-standard residues stand in square brackets, D forms with d. Residues, ends and D or L forms follow the SMILES beside them. Hyp = O=C(O)[C@@H]1C[C@@H](O)CN1

As for `CC(=O)NCC(=O)N1CCC[C@H]1C(=O)N1C[C@H](O)C[C@H]1C(=O)NCC(=O)N1CCC[C@H]1C(=O)N1C[C@H](O)C[C@H]1C(=O)NCC(=O)N[C@@H](CCCNC(=N)N)C(=O)N1C[C@H](O)C[C@H]1C(=O)NCC(=O)N[C@@H](CCCCN)C(=O)N[C@@H](CCCNC(=N)N)C(=O)NCC(=O)N[C@@H](CCCCN)C(=O)N[C@@H](CCC(N)=O)C(=O)NCC(=O)N[C@@H](CCC(N)=O)C(=O)N[C@@H](CCCCN)C(=O)NCC(=O)N1CCC[C@H]1C(=O)N1C[C@H](O)C[C@H]1C(=O)NCC(=O)N1CCC[C@H]1C(=O)N1C[C@H](O)C[C@H]1C(=O)NCC(=O)NCC(N)=O` [AchE-HG-C4, Ac-GPO-GPO-GRO-GKR-GKQ-GQK-GPO-GPO-GG-NH2] (Ac-GP[Hyp]GP[Hyp]GR[Hyp]GKRGKQGQKGP[Hyp]GP[Hyp]GG-NH2), the ΔTm in series [1] is −1.2 °C. For the same molecule, the “Tm^obs” value in series [2] stood at 8.1 °C.
On to “GPS-GPR-GLO-GPO-GAO-GPQ-GFQ-GPO-(GEO)2-GAS-GPM [α1CB2]”, for which the ΔTm in series [1] is 3.4 °C. The “Tm^obs” value in series [2] was 12 °C.
For `CC(=O)NCC(=O)N1CCC[C@H]1C(=O)N1C[C@H](O)C[C@H]1C(=O)NCC(=O)N1CCC[C@H]1C(=O)N1C[C@H](O)C[C@H]1C(=O)NCC(=O)N1CCC[C@H]1C(=O)N1C[C@H](O)C[C@H]1C(=O)NCC(=O)N1CCC[C@H]1C(=O)N1C[C@H](O)C[C@H]1C(=O)NCC(=O)N1CCC[C@H]1C(=O)N[C@@H](C)C(=O)NCC(=O)N1CCC[C@H]1C(=O)N[C@@H](C)C(=O)NCC(=O)N1CCC[C@H]1C(=O)N[C@H](C(=O)NCC(=O)N1CCC[C@H]1C(=O)N[C@@H](C)C(=O)NCC(=O)N[C@@H](C)C(=O)N[C@@H](CCCNC(=N)N)C(=O)NCC(=O)N1CCC[C@H]1C(=O)N[C@@H](C)C(=O)NCC(=O)N[C@H](C(N)=O)C(C)C)C(C)C` [T1-892r, Ac-(GPO)4-GPA-GPA-GPV-GPA-GAR-GPA-GV-NH2] (Ac-GP[Hyp]GP[Hyp]GP[Hyp]GP[Hyp]GPAGPAGPVGPAGARGPAGV-NH2), the ΔTm in series [1] is −2.2 °C.
For `CC(=O)NCC(=O)N1CCC[C@H]1C(=O)N[C@@H](C)C(=O)NCC(=O)N1CCC[C@H]1C(=O)N[C@@H](C)C(=O)NCC(=O)N1CCC[C@H]1C(=O)N[C@H](C(=O)NCC(=O)N1CCC[C@H]1C(=O)N[C@@H](C)C(=O)NCC(=O)N[C@@H](C)C(=O)N[C@@H](CCCNC(=N)N)C(=O)NCC(=O)N1CCC[C@H]1C(=O)N[C@@H](C)C(=O)NCC(=O)N1CCC[C@H]1C(=O)N1C[C@H](O)C[C@H]1C(=O)NCC(=O)N1CCC[C@H]1C(=O)N1C[C@H](O)C[C@H]1C(=O)NCC(=O)N1CCC[C@H]1C(=O)N1C[C@H](O)C[C@H]1C(=O)NCC(=O)N1CCC[C@H]1C(=O)N1C[C@H](O)C[C@H]1C(=O)NCC(=O)N[C@H](C(N)=O)C(C)C)C(C)C` [T1-892, Ac-GPA-GPA-GPV-GPA-GAR-GPA-(GPO)4-GV-NH2] (Ac-GPAGPAGPVGPAGARGPAGP[Hyp]GP[Hyp]GP[Hyp]GP[Hyp]GV-NH2), the ΔTm in series [1] was −2.2 °C. Moreover, in series [2], the “Tm^obs” value came out at 26.0 °C.
In the same order, the values of `CC[C@H](C)[C@H](NC(=O)CNC(C)=O)C(=O)N[C@@H](CC(N)=O)C(=O)NCC(=O)N[C@@H](Cc1ccccc1)C(=O)N1C[C@H](O)C[C@H]1C(=O)NCC(=O)N[C@@H](CCCCN)C(=O)N[C@@H](CC(=O)O)C(=O)NCC(=O)N[C@@H](CCCNC(=N)N)C(=O)N[C@@H](CC(=O)O)C(=O)NCC(=O)N[C@H](C(=O)N[C@@H](CCCCN)C(=O)NCC(=O)N[C@@H](CCC(=O)O)C(=O)N[C@@H](CCCCN)C(=O)NCC(=O)N[C@@H](CCC(=O)O)C(=O)N1C[C@H](O)C[C@H]1C(=O)NCC(=O)N1CCC[C@H]1C(=O)N1C[C@H](O)C[C@H]1C(=O)NCC(=O)N1CCC[C@H]1C(=O)N1C[C@H](O)C[C@H]1C(=O)NCC(=O)N1CCC[C@H]1C(=O)N1C[C@H](O)C[C@H]1C(=O)NCC(=O)N1CCC[C@H]1C(=O)N1C[C@H](O)C[C@H]1C(=O)NCC(=O)NCC(N)=O)[C@@H](C)O` [MBL 42-61, Ac-GIN-GFO-GKD-GRD-GTK-GEK-GEO-(GPO)4-GG-NH2] (Ac-GINGF[Hyp]GKDGRDGTKGEKGE[Hyp]GP[Hyp]GP[Hyp]GP[Hyp]GP[Hyp]GG-NH2) are −2.2 °C and 23.0 °C.
For the molecule `CC(=O)NCC(=O)N1CCC[C@H]1C(=O)N1C[C@H](O)C[C@H]1C(=O)NCC(=O)N[C@@H](CCCNC(=N)N)C(=O)N1C[C@H](O)C[C@H]1C(=O)NCC(=O)N[C@@H](CCCNC(=N)N)C(=O)N[C@@H](CCCNC(=N)N)C(=O)NCC(=O)N[C@@H](CCCNC(=N)N)C(=O)N1C[C@H](O)C[C@H]1C(=O)NCC(=O)N[C@@H](CC(C)C)C(=O)N[C@@H](CCCCN)C(=O)NCC(=O)N[C@@H](CCC(=O)O)C(=O)N[C@@H](CCC(N)=O)C(=O)NCC(=O)N1CCC[C@H]1C(=O)N1C[C@H](O)C[C@H]1C(=O)NCC(=O)N1CCC[C@H]1C(=O)N1C[C@H](O)C[C@H]1C(=O)NCC(=O)N1CCC[C@H]1C(=O)N1C[C@H](O)C[C@H]1C(=O)NCC(=O)N1CCC[C@H]1C(=O)N1C[C@H](O)C[C@H]1C(=O)NCC(=O)N[C@@H](Cc1ccc(O)cc1)C(N)=O` [C1qA-15, Ac-GPO-GRO-GRR-GRO-GLK-GEQ-(GPO)4-GY-NH2] (Ac-GP[Hyp]GR[Hyp]GRRGR[Hyp]GLKGEQGP[Hyp]GP[Hyp]GP[Hyp]GP[Hyp]GY-NH2), the shift in melting temperature (ΔTm) in series [1] is −7.4 °C. The “Tm^obs” value in series [2] was 23.3 °C.
Turning to `CC[C@H](C)[C@H](NC(=O)CNC(=O)[C@@H]1C[C@@H](O)CN1C(=O)[C@@H]1CCCN1C(=O)CNC(=O)[C@@H]1C[C@@H](O)CN1C(=O)[C@@H]1CCCN1C(=O)CNC(=O)[C@@H]1C[C@@H](O)CN1C(=O)[C@@H]1CCCN1)C(=O)N[C@H](C(=O)NCC(=O)N[C@@H](C)C(=O)N[C@@H](CCCNC(=N)N)C(=O)NCC(=O)N[C@@H](CC(C)C)C(=O)N[C@@H](C)C(=O)NCC(=O)N1CCC[C@H]1C(=O)N1C[C@H](O)C[C@H]1C(=O)NCC(=O)N1CCC[C@H]1C(=O)N1C[C@H](O)C[C@H]1C(=O)NCC(=O)N1CCC[C@H]1C(=O)N1C[C@H](O)C[C@H]1C(=O)NCC(=O)N1CCC[C@H]1C(=O)N1C[C@H](O)C[C@H]1C(=O)NCC(=O)O)[C@@H](C)O` [T3-785, PO-(GPO)2-GIT-GAR-GLA-(GPO)4-G] (H-P[Hyp]GP[Hyp]GP[Hyp]GITGARGLAGP[Hyp]GP[Hyp]GP[Hyp]GP[Hyp]G-OH), the shift in melting temperature (ΔTm) in series [1] is 0.9 °C. Further, the “Tm^obs” value in series [2] came to 18.0 °C.
`CC(=O)NCC(=O)N1CCC[C@H]1C(=O)N1C[C@H](O)C[C@H]1C(=O)NCC(=O)N1CCC[C@H]1C(=O)N1C[C@H](O)C[C@H]1C(=O)NCC(=O)N[C@@H](CCCNC(=N)N)C(=O)N1C[C@H](O)C[C@H]1C(=O)NCC(=O)N[C@@H](CCCNC(=N)N)C(=O)N[C@@H](CCCCN)C(=O)NCC(=O)N[C@@H](CCCNC(=N)N)C(=O)N1C[C@H](O)C[C@H]1C(=O)NCC(=O)N1CCC[C@H]1C(=O)N1C[C@H](O)C[C@H]1C(=O)NCC(=O)N1CCC[C@H]1C(=O)N1C[C@H](O)C[C@H]1C(=O)NCC(=O)N1CCC[C@H]1C(=O)N1C[C@H](O)C[C@H]1C(=O)NCC(=O)NCC(N)=O` [AchE-HG-N2, Ac-GPO-GPO-GRO-GRK-GRO-GPO-GPO-GPO-GG-NH2] (Ac-GP[Hyp]GP[Hyp]GR[Hyp]GRKGR[Hyp]GP[Hyp]GP[Hyp]GP[Hyp]GG-NH2): the ΔTm in series [1] is 1.3 °C. Further, the “Tm^obs” value in series [2] came to 17.4 °C.
For `CC(=O)NCC(=O)N1CCC[C@H]1C(=O)N1C[C@H](O)C[C@H]1C(=O)NCC(=O)N1CCC[C@H]1C(=O)N1C[C@H](O)C[C@H]1C(=O)NCC(=O)N[C@@H](CCCNC(=N)N)C(=O)N1C[C@H](O)C[C@H]1C(=O)NCC(=O)N[C@@H](CCCCN)C(=O)N[C@@H](CCCNC(=N)N)C(=O)NCC(=O)N[C@@H](CCCCN)C(=O)N[C@@H](CCC(N)=O)C(=O)NCC(=O)N[C@@H](CCC(N)=O)C(=O)N[C@@H](CCCCN)C(=O)NCC(=O)N1CCC[C@H]1C(=O)N1C[C@H](O)C[C@H]1C(=O)NCC(=O)N1CCC[C@H]1C(=O)N1C[C@H](O)C[C@H]1C(=O)NCC(=O)N1CCC[C@H]1C(=O)N1C[C@H](O)C[C@H]1C(=O)NCC(=O)N1CCC[C@H]1C(=O)N1C[C@H](O)C[C@H]1C(=O)NCC(N)=O` [AchE-P231 (r), Ac-GPO-GPO-GRO-GKR-GKQ-GQK-(GPO)4-G-NH2] (Ac-GP[Hyp]GP[Hyp]GR[Hyp]GKRGKQGQKGP[Hyp]GP[Hyp]GP[Hyp]GP[Hyp]G-NH2), in that order: −1.9 °C and 23.9 °C.
Consider “MBL: MBL peptide(s) of Table 3 containing Gly-Lys-Asp-Gly-Arg-Asp-Gly-Thr-Lys-Gly-Glu-Lys-Gly-Glu-Hyp; not said whether MBL 42-61 or 45-61 (GKDGRDGTKGEKGEP)”, for which the shift in melting temperature (ΔTm) result in series [1] is listed as “higher than observed”.

In general, ΔTm refers to the shift of the melting midpoint relative to a reference.
